Data: EP0242855A2, “Crosslinking reaction inhibitor for collagen” (priority 1986, dated 1987)
Values joined by “and” are separate entries in the source; they are usually repeats but may differ in a detail not shown here. Identical values can stand only once. Like-named read-outs stand apart in the source and are kept apart here.

Tests used:
collagen = target: T1, collagen (Gallus gallus, UniProt P02457+P02467); assay type: biochemical, spring chicken
T1 construct: collagen obtained by grinding and deliming the bone of a spring chicken; from tissue; host or cells: bone of a spring chicken, ground and delimed (demineralised)
T1 sequence (P02467 78-1363): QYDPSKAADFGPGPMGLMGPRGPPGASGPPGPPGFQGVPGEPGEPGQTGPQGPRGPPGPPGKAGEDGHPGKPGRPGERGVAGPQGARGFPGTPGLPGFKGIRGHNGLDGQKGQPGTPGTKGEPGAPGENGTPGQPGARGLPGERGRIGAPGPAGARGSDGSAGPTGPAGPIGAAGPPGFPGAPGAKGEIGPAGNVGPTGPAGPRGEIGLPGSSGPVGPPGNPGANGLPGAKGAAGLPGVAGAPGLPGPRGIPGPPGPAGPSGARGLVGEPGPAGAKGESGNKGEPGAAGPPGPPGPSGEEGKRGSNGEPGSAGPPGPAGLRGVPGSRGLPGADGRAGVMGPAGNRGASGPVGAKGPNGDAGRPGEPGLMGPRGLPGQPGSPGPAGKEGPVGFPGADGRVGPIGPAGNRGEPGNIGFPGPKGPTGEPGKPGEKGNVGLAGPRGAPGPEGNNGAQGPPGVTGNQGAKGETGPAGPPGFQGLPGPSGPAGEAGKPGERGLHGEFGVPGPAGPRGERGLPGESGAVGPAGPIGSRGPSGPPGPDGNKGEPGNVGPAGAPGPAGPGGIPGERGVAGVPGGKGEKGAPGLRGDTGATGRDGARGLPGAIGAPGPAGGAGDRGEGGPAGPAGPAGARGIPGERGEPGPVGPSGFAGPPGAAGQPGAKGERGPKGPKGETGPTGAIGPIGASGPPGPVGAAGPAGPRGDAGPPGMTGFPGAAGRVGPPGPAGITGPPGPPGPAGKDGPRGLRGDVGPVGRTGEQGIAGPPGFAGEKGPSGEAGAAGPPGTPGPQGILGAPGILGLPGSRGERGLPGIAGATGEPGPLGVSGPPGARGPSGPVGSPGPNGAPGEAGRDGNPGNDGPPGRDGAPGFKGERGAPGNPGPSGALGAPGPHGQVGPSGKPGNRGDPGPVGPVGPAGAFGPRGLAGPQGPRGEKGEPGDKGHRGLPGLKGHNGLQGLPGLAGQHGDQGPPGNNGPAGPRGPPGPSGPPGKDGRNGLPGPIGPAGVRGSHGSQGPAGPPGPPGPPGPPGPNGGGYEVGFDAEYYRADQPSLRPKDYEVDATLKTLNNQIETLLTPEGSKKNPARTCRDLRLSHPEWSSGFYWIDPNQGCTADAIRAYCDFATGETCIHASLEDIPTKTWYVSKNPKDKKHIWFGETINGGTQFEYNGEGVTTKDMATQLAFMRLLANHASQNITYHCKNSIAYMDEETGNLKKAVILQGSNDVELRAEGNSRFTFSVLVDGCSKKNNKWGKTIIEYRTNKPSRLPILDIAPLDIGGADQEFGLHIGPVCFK
T1 sequence (P02457 152-1207): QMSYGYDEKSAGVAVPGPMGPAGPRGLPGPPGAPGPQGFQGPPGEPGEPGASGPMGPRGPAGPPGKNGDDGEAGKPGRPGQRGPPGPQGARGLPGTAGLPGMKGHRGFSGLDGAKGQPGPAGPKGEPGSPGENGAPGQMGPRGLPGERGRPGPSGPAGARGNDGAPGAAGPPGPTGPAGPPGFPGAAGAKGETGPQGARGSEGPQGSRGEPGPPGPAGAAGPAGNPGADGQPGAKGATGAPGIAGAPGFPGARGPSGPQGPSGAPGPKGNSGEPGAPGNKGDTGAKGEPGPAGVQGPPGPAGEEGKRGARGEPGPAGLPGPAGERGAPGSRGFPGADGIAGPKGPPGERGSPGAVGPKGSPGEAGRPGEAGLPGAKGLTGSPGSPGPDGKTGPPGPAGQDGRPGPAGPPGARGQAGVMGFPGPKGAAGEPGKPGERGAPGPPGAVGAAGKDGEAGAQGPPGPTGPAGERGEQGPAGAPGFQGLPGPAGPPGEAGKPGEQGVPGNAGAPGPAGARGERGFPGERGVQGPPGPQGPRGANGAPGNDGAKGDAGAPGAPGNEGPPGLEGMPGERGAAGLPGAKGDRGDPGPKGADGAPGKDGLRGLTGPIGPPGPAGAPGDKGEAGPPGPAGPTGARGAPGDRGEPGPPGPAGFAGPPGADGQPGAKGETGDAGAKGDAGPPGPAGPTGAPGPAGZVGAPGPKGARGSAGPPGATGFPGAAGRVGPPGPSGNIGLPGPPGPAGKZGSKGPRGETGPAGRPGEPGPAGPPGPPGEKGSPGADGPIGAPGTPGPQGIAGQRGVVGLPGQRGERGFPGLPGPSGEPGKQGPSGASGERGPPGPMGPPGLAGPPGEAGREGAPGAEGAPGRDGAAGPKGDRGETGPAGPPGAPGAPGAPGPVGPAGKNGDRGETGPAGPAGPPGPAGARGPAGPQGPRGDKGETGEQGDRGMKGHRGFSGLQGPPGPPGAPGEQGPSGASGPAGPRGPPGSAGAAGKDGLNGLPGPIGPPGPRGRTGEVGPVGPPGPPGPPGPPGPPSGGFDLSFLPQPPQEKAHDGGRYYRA

[1] = LD50 safety data, rat subcutaneous treatment; settings: in vivo, sc
From the text: The silicon compound used in the present invention involves no problem with respect to safety. Shown below are data as to the safety of the silicon compounds.

[2] = silicon compound 0.01 %, collagen 100 mg, glucose 0.2 M, pH 7.4, 37 C, 4 weeks
[3] = silicon compound 0.1 %, collagen 100 mg, glucose 0.2 M, pH 7.4, 37 C, 4 weeks
[4] = silicon compound 0.01 %, collagen 100 mg, glucose 0.2 M, pH 7.4, 37 C, 4 weeks, solubilized by cutting with CNBr
[5] = silicon compound 0.05 %, collagen 100 mg, glucose 0.2 M, pH 7.4, 37 C, 4 weeks
[6] = silicon compound 0.05 %, collagen 100 mg, glucose 0.2 M, pH 7.4, 37 C, 4 weeks, solubilized by cutting with CNBr

| Structure (SMILES) | Portion A/ portion B (collagen; [2]) | Portion A/ portion B (collagen; [3]) | Soluble collagen (%) (collagen; [4]) | Soluble collagen (%) (collagen; silicon compound 0.1 %, collagen 100 mg, glucose 0.2 M, pH 7.4, 37 C, 4 weeks, solubilized by cutting with CNBr) | Portion A/ portion B (collagen; [5]) | Soluble collagen (%) (collagen; [6]) | LD50 [1] [mg/kg] | crosslinking and polymerization of collagen (collagen; addition of 0.01 to 0.1%) | Soluble collagen (%) (collagen; pH 7.4) | Portion A/ portion B (collagen; silicon compound 0.003 %, collagen 100 mg, glucose 0.2 M, pH 7.4, 37 C, 4 weeks) | Portion A/ portion B (collagen; silicon compound 0.03 %, collagen 100 mg, glucose 0.2 M, pH 7.4, 37 C, 4 weeks) | Portion A/ portion B (collagen; silicon compound 0.3 %, collagen 100 mg, glucose 0.2 M, pH 7.4, 37 C, 4 weeks) |
| --- | --- | --- | --- | --- | --- | --- | --- | --- | --- | --- | --- | --- |
| C[Si](C)(O)O [Dimethyl silanediol, dimethyl silanediol] | 0.43 | 0.35 | – | – | – | – | – | – | – | – | – | – |
| CC=C[Si](O)(O)O [Propenyl silanetriol, propenyl silanetriol] | 0.45 | 0.39 | 71 | 72 | – | – | – | – | – | – | – | – |
| C[Si](O)(O)O[Si](C)(O)O [Dimer of methyl silnetriol] | 0.35 | – | 80 | – | 0.40 | 75 | – | – | – | – | – | – |
| O[Si](O)(O)C1CCCCC1 [Cyclohexyl silanetriol, cyclohexyl silanetriol] | 0.42 | – | 68 | – | 0.45 | 73 | – | – | – | – | – | – |
| CCCCCCCCCCCC[Si](O)(O)O [Dodecyl silanetriol, dodecyl silanetriol] | 0.45 | – | 68 | – | 0.44 | 72 | – | – | – | – | – | – |
| C[Si](O)(O)O [Methyl silanetriol, methyl silanetriol] | 0.40 | 0.40 | – | – | – | – | ≥ 1000 | inhibits the crosslinking and polymerization of collagen | 50% and 81% and 86% and 76% and 54% | 0.55 | 0.35 | 0.54 |
| O[Si](O)(O)c1ccccc1 [Phenyl silanetriol] | 0.40 | – | 70 | – | 0.41 | 72 | – | – | – | – | – | – |
